Where two headings read alike, the source gives them in different places. Marks after values point to notes of the source that are not given here. Where a SMILES comes first, the peptide text is derived from it. [ ]: non-standard residue; d: D form. The star is where a group is joined. Dolaproine = CO[C@@H]([C@@H]1CCCN1)[C@@H](C)C(=O)O; Dil = CC[C@H](C)[C@H](NC)[C@@H](CC(=O)O)OC; X1 = C[C@@H](N*)[C@@H](O)c1ccccc1; NMeV = CN[C@H](C(=O)O)C(C)C
Assays:
CYP2B6 = test: CYP2B6-catalyzed bupropion hydroxylase activity in human hepatocytes after 48 h treatment; conditions: human, 48 h, 10 nM
Protocol: (§1) Samples were incubated for 48 h at 37 °C in 5% CO2, and the medium was exchanged with 250 μL of fresh medium containing drugs or the vehicle every 24 h.
(§2) The effects of mertansine on CYP1A2, CYP2B6, and CYP3A4 activities were evaluated. […] Mixtures were vortexed for 2 min and then centrifuged at 13,000 g for 4 min at 4 °C. The supernatant (40 µL) was diluted with 60 µL of deionized water and then mixed for 2 min by vortexing. An aliquot (5 µL) was analyzed using LC-MS/MS [37], and CYP1A2, CYP2B6, and CYP3A4 enzyme activities were expressed as formation rates (pmol/million cells/min).
(§3) The percentage changes in enzymatic activities were calculated as (CYP activity with test compound treatment/CYP activity with vehicle control treatment) × 100. The IC50 (the concentration of the inhibitor needed for half-maximal inhibition) values were calculated using SigmaPlot ver. […] Ki (the inhibition constant) and the inhibition mode of UGT1A1, UGT1A3, and UGT1A4 activities were determined using Enzyme Kinetics ver. 1.1 (Systat Software, Inc.).

CYP2B6 mRNA = CYP2B6 mRNA level in human hepatocytes after 48 h treatment (RT-PCR); assay type: cell-based; conditions: 48 h, 10 nM
Source text: (§4) 12.5 (Systat Software, Inc.; San Jose, CA, USA). […] 1.1 (Systat Software, Inc.).

CYP activities = system: CYP activities; parameters: method as in PMID 22752008; conditions: three human hepatocytes, cited from earlier work
[1] = system: CYP1A2, CYP2B6, and CYP3A4 mRNA; parameters: method as in PMID 22752008; conditions: three human hepatocytes, cited from earlier work
UGT1A4 mRNA = UGT1A4 mRNA level in human hepatocytes after 48 h treatment (RT-PCR); conditions: 50 μM omeprazole, 48 h, range over three human hepatocytes
UGT1A1 mRNA = UGT1A1 mRNA level in human hepatocytes after 48 h treatment (RT-PCR); conditions: 48 h
CYP1A2 = test: CYP1A2-catalyzed phenacetin O-deethylase activity in human hepatocytes after 48 h treatment; conditions: 48 h; for Enzyme Activities: CYP1A2-catalyzed phenacetin O-deethylase activity: Omeprazole 50 μM
Protocol: as §1, §2, §3

CYP1A2 mRNA = CYP1A2 mRNA level in human hepatocytes after 48 h treatment (RT-PCR); assay type: cell-based; conditions: 48 h, 50 µM
Source text: as §4

CYP2C8 mRNA = conditions: human, hepatocytes, 48 h, 10 μM
CYP2C19 mRNA = conditions: human, hepatocytes, 48 h, 10 μM
[2] = system: HER2-positive metastatic breast cancer; conditions: five randomized clinical trials, 3,720 patients; cited from earlier work

Clc1ccc(-c2nc3sccn3c2C=NOCc2ccc(Cl)c(Cl)c2)cc1 [CITCO, 6-(4-chlorophenyl)imidazo[2,1-b](1,3)thiazole-5-carbaldehyde-O-(3,4-dichlorobenzyl)oxime]
Increase of CYP2B6-mediated bupropion hydroxylase activity (CYP2B6): 3.8–15.7 fold
Increase of CYP2B6 mRNA levels (CYP2B6 mRNA): 5.6–8.7 fold

CC[C@H](C)[C@@H]([C@@H](CC(=O)N1CCC[C@H]1[C@H](OC)[C@@H](C)C(=O)N[C@H](C)[C@@H](O)c1ccccc1)OC)N(C)C(=O)[C@@H](NC(=O)[C@@H](NC)C(C)C)C(C)C [MMAE, monomethyl auristatin E] (H-[NMeV]V[Dil][Dolaproine]-X1)
Decrease of CYP activities (CYP activities; 100 nM MMAE): 40–71%
Decrease of CYP activities (CYP activities; 1000 nM MMAE): 45–81%
Suppression of CYP1A2, CYP2B6, and CYP3A4 mRNA expression ([1]; 100 nM MMAE): 61–90%
Suppression of CYP1A2, CYP2B6, and CYP3A4 mRNA expression ([1]; 1000 nM MMAE): 95–97%

COc1ccc2[nH]c([S+]([O-])Cc3ncc(C)c(OC)c3C)nc2c1 (centres unmarked) [Omeprazole, omeprazole]
Increase of UGT1A4 mRNA levels (UGT1A4 mRNA): 3.3–4.1 fold
Increase of UGT1A1 mRNA levels (UGT1A1 mRNA; 50 μM omeprazole, range over three human hepatocytes): 3.9–7.0 fold
UGT1A1 mRNA (Fold Change) (UGT1A1 mRNA; Omeprazole 50 μM, Lot 319): 6.97 ± 0.94 Fold Change
Increase of CYP1A2-mediated phenacetin O-deethylase activity (CYP1A2; 50 µM omeprazole, vs vehicle, range over three human hepatocytes): 11.7–61.8 fold
Enzyme Activities: CYP1A2-catalyzed phenacetin O-deethylase activity (CYP1A2; Lot 319): 18.5 ± 3.3 ^a pmol/10^6 Cells/min
Enzyme Activities: CYP1A2-catalyzed phenacetin O-deethylase activity (CYP1A2; Lot 321): 89.45 ± 4.52 ^a pmol/10^6 Cells/min
Enzyme Activities: CYP1A2-catalyzed phenacetin O-deethylase activity (CYP1A2; Lot 361): 81.0 ± 0.53 ^a pmol/10^6 Cells/min
Increase of CYP1A2 mRNA levels (CYP1A2 mRNA): 58.7–299.3 fold

CO[C@H]1/C=C/O[C@@]2(C)Oc3c(C)c(O)c4c(O)c(c(/C=N/N5CCN(C)CC5)c(O)c4c3C2=O)NC(=O)/C(C)=C\C=C\[C@H](C)[C@H](O)[C@@H](C)[C@@H](O)[C@@H](C)[C@H](OC(C)=O)[C@@H]1C [Rifampin, rifampin]
Increase of CYP2C8 mRNA levels (CYP2C8 mRNA): 3.7–4.8 fold
Increase of CYP2C19 mRNA levels (CYP2C19 mRNA): 2.0–2.2 fold

trastuzumab emtansine [T-DM1]
Progression-free survival and overall survival compared to other anti-HER2 therapies [2]: significantly prolonged

From publication PMC7150891, “Mertansine Inhibits mRNA Expression and Enzyme Activities of Cytochrome P450s and Uridine 5′-Diphospho-Glucuronosyltransferases in Human Hepatocytes and Liver Microsomes” (Pharmaceutics, 2020)
